Test results published in patent publication US6989451B2, “Heterocyclic compounds and uses thereof” (Valeant Research & Development, priority 2002, dated 2006).

Columns and labels:
[1] = tested on: MEK-ERK dependent luciferase expression (constitutively activated mutant MEK) in 293T cells; experiment: Cell-based MEK-ERK dependent luciferase reporter assay in 293T cells; details: Homo sapiens, HEK-293T, minimum concentration causing 50% inhibition in cell-based assays, 24 hours incubation
Protocol: Activities of compounds were determined using a cell-based assay system. 293T cells were engineered to express a luciferase reporter protein in response to activation of ERK. ERK was activated by the doxycycline inducible expression of a constitutively activated mutant MEK. The activated MEK mutant had serines 218 and 222 replaced with aspartic acids. Therefore, addition of doxycycline to the media of cells induced an increase in MEK-ERK dependent luciferase expression.
Cells were plated at 5000 cells per well of a 384 well plate in 20 ul of media containing 10 ng/ml doxycycline. Compounds were resuspended in DMSO at a concentration of 20 mM. These compound stocks were diluted at least 200 fold so the concentration of DMSO was never above 0.5%. Cells were incubated with compounds for 24 hours at which time 25 ul of Steady-Glo (Promega Corp.) was added. The plates were then assayed for luminescence. Percent inhibition was calculated by dividing the luminescence of compound treated cells by control cells.

[2] = target: T1, GST-hMEK1 and mERK2 (Homo sapiens, UniProt Q02750); type: biochemical; details: minimum concentration causing 50% inhibition in vitro assays; MEK kinase inhibition
T1 construct: purified GST-hMEK1 and mERK2 enzymes; fused on or other part: GST tag on hMEK1
Protocol: In order to identify ideal inhibitory compounds in a high throughput-screening (HTS) format a 96-well radiolabel incorporation format assay utilizing purified GST-hMEK1 and mERK2 enzymes was developed. Compounds were diluted from dimethylsulfoxide (DMSO) stocks into 1× Simplified Assay Buffer (SAB) (20 mM HEPES and 10 mM MgCl2). A typical 25 microliter assay contained 0.002 nanomoles MEK^CA, 0.02 nanomoles ERK, 0.25 nanomoles MBP, 0.25 nanomoles unlabeled ATP, and 0.1 μCi [γ^33P] ATP. The screening assay essentially comprised four additions. Five μ1 of diluted compound were dispensed to 96-well assay plates. Ten μl of 2.5× enzyme cocktail (MEK^CA and ERK only) were then added to each well followed by a pre-incubation for 15 minutes at 37° C. […] Finally, 200 μl of 10% trichloroacetic acid (TCA) were added and incubated for 30 minutes to halt the reaction and precipitate radio labeled protein products. A filter plate was placed in the Filtermate Harvester, wetted twice with water, and rinsed twice with 1% pyrophosphate to block nonspecific binding to the glass filter. An assay plate was then scanned and aspirated or harvested onto the filter plate. The filter plate was then washed 12 times with water. Water was displaced by two washes with absolute ethanol and the plate was removed and allowed to air dry for 30 minutes at room temperature. A back seal was applied manually and 40 μl of scintillation cocktail were dispensed per well. A top seal was applied and the plate was counted in the TopCount for two seconds per well.

T1 sequence (P63085 2-358): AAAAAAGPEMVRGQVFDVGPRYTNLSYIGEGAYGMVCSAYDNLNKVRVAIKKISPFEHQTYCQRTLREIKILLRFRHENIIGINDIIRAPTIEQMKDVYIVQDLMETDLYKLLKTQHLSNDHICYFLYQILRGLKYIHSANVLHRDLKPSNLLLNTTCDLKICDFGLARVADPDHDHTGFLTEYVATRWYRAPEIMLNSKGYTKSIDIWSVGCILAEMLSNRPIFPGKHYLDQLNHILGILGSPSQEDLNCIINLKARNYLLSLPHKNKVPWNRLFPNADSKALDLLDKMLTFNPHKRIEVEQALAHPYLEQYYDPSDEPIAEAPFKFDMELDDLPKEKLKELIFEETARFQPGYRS
T1 sequence (Q02750 whole entry, the tested form may be a part): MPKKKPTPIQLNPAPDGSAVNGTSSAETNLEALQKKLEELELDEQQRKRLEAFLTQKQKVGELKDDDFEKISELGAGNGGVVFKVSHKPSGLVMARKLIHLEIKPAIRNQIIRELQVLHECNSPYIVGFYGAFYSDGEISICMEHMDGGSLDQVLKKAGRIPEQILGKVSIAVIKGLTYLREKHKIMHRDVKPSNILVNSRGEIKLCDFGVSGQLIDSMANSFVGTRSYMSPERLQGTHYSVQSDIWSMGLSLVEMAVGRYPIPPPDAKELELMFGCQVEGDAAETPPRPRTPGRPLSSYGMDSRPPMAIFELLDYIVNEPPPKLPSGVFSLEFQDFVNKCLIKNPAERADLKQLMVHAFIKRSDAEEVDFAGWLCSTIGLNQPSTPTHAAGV

SMILES | IC50 [2] | EC50 [1]
N#Cc1c(Br)nsc1Nc1ccccc1 [Compound 2] | 10 to 100 µM | < 10 µM
Cc1ccc(Nc2snc(O)c2C#N)cc1 [Compound 3] | 10 to 100 µM | < 10 µM
Cc1cccc(Nc2s[nH]c(=O)c2C#N)c1 [Compound 4] | 10 to 100 µM | 10 to 100 µM
COc1ccc(Nc2snc(O)c2C#N)cc1 [Compound 6] |  | > 100 µM
COc1ccccc1Nc1snc(O)c1C#N [Compound 7] |  | > 100 µM
COc1cccc(Nc2snc(O)c2C#N)c1 [Compound 8] |  | > 100 µM
N#Cc1c(O)nsc1Nc1ccc(Cl)cc1 [Compound 9] | 10 to 100 µM | > 100 µM
N#Cc1c(O)nsc1Nc1cccc(Cl)c1 [Compound 10] | 10 to 100 µM | > 100 µM
N#Cc1c(O)nsc1Nc1ccccc1Cl [Compound 11] | 10 to 100 µM | > 100 µM
N#Cc1c(O)nsc1Nc1ccc([N+](=O)[O-])cc1 [Compound 12] | < 10 µM | > 100 µM
N#Cc1c(O)nsc1Nc1cccc2ccccc12 [Compound 13] | < 10 µM | < 10 µM
COc1cc(-c2ccccc2)ccc1Nc1snc(O)c1C#N [Compound 14] | < 10 µM | > 100 µM
CC(C)c1ccc(Nc2snc(O)c2C#N)cc1 [Compound 15] | < 10 µM | < 10 µM
CC(C)c1cccc(C(C)C)c1Nc1snc(O)c1C#N [Compound 16] | 10 to 100 µM | 10 to 100 µM
CN(C)c1ccc2ccccc2c1Nc1snc(O)c1C#N [Compound 17] | < 10 µM | < 10 µM
CN(C)c1ccc(Nc2snc(O)c2C#N)c2ccccc12 [Compound 18] | < 10 µM | < 10 µM
N#Cc1c(O)nsc1Nc1ccccc1C(F)(F)F [Compound 19] | 10 to 100 µM | 
Cc1ccc(Nc2snc(N)c2C#N)cc1 [Compound 20] | < 10 µM | 
CC(=O)c1ccc(Nc2snc(O)c2C#N)cc1 [Compound 22] | < 10 µM | 
N#Cc1c(Nc2ccc(Br)cc2)s[nH]c1=O [Compound 24] | < 10 µM | 
COC(=O)c1ccc(Nc2snc(O)c2C#N)cc1 [Compound 25] | < 10 µM | 
COC(=O)c1ccccc1Nc1snc(O)c1C#N [Compound 27] | < 10 µM | 
N=C(N)c1c(O)nsc1Nc1ccc(Oc2ccccc2)cc1 [Compound 36] | < 10 µM | 
NC(=O)c1c(O)nsc1Nc1ccc(Oc2ccccc2)cc1 [Compound 37] | < 10 µM | 
N#Cc1c(OC2CCCCC2)nsc1Nc1ccccc1 [Compound 38] | < 10 µM | 

Continued, in another order:

IC50 [2] | SMILES | EC50 [1]
< 10 µM | N#Cc1c(O)nsc1Nc1ccccc1 [Compound 1] | 10 to 100 µM
10 to 100 µM | Cc1ccccc1Nc1snc(O)c1C#N [Compound 5] | 10 to 100 µM
< 10 µM | N#Cc1c(O)nsc1Nc1ccc(N)cc1 [Compound 21] | 
< 10 µM | N#Cc1c(O)nsc1Nc1ccccc1F [Compound 26] | 
< 10 µM | N#Cc1c(O)nsc1Nc1cccnc1 [Compound 29] | 
< 10 µM | N#Cc1c(O)nsc1NC1CCc2ccccc21 (stereo not shown) [Compound 31] | 
< 10 µM | CCCCNc1snc(O)c1C#N [Compound 32] | 
< 10 µM | N#Cc1c(O)nsc1N1CCCCC1 [Compound 33] | 
< 10 µM | N#Cc1c(O)nsc1NCC1CCCO1 (stereo not shown) [Compound 34] | 
< 10 µM | N#Cc1c(O)nsc1NCCc1ccc(O)cc1 [Compound 35] | 
< 10 µM | CC(C)Nc1snc(O)c1C#N [Compound 39] | 
< 10 µM | N#Cc1c(O)nsc1NCCCN1CCOCC1 [Compound 40] | 
